Columns and labels:
Format in all cases: in vivo
[1] = test system: pancreatic juice secretion; experiment: Biological effect of rectally administered secretin measured via pancreatic juice secretion, compared with subcutaneous injection; details: secretin in suppositories or rectal capsules without depot body
Protocol: Many medicaments may be incorporated in suppositories and administered rectally. They are sufficiently well absorbed in this form. […] For example, if secretin is administered by this route, the biological effect which is measured via pancreatic juice secretion is only about 1% of the effect obtained with subcutaneous injection.

pancreatic juice = experiment: Pancreatic juice production in rats after rectal administration of secretin suppository with or without depot body
Protocol: The intensified effect of secretin in the form of rectally administrable preparations due to the depot bodies used according to the invention becomes evident from the drawing. In a test carried out on 8 rats each weighing 0.5 kg, 100 μg of secretin in a suppository of a weight of 73 mg cause the production of 92 μl of pancreatic juice (curve 1). With the addition of 25 mg of 3,5-dihydroxybenzoyl-L-tyrosine the volume of pancreatic juice rose to 1778 μl (curve 2). This corresponds to an increase of the effect to about 20 times its original value. […] In the present case the secretin dose has been chosen very high in order to obtain a measurable volume also without additive.
With a non-maximum stimulation in the normal dose range (about half the dose), the increase of the effect is about 50-fold.

[2] = test system: Pancreatic juice secretion of the rat; experiment: Pancreatic juice secretion of the rat after subcutaneous administration of secretin with depot bodies; details: rat, subcutaneous, 5 CU/kg secretin + 10 mg depot body/animal; for Δ% vs. control (percentage by which the pancreatic secretion is above the basal secretion after 5 hours): control=100%, measure of depot effect; for Rel. Intensity of effect over 5 hours (total pancreatic juice secretion over 5 hours as compared with control): control (0.9% of NaCl)=1
Protocol: Secretin preparations for subcutaneous application which contained the depot bodies specified in the following Table were tested in animal experiments. In the experimental procedure chosen, 5 to 8 male rats weighing 300 to 500 g each are administered subcutaneously 5 CU/kg of secretin (CU means clinical unit) and 10 mg of the depot body to be tested each in aqueous solution or suspension.
The animals remain without food for 18 hours prior to the test, but they are given water ad libitum. Under urethane anaesthesia (5 ml/kg i.m. of 25% urethane) the abdomen is opened by median section after tracheotomy, and the pylorus is ligated. The ductus choledochus is tied off in its proximal part near the porta hepatis, and the bile is led into the duodenum via a polyethylene tube of a diameter of […]. A cannula or catheter is inserted into the distal part of the bile duct, into which the numerous pancreatic ducts open, immediately before it opens into the duodenum, and the volume of the secretion running off is measured in 60 minute intervals. Following a preliminary run of 60 minutes the preparations are administered.
L means the compound known from literature and characterized by the melting point, optionally UV, IR or NMR. A to C relate to the preparation according to Example 1, process A to C. These compounds were characterized by ultimate analysis. The third column indicates the percentage by which the pancreatic secretion is above the basal secretion after 5 hours (calculated on the control=100%). This value is a measure for the depot effect of the depot body tested. Column 4 indicates the intensification of the secretin effect, with the total pancreatic juice secretion having been given over 5 hours as compared with the control (0.9% of NaCl)=1.

[3] = rats, rectal, 100 μg secretin + 25 mg depot body

| Compound | Δ% vs. control (percentage by which the pancreatic secretion is above the basal secretion after 5 hours) [2] [%] | Rel. Intensity of effect over 5 hours (total pancreatic juice secretion over 5 hours as compared with control) [2] | further results |
| --- | --- | --- | --- |
| secretin [reference compound] |  |  | biological effect of rectal administration relative to effect obtained with subcutaneous injection [1]: about 1%; production of pancreatic juice (pancreatic juice; 8 rats of 0.5 kg, rectal, 100 μg secretin in 73 mg suppository, no additive (curve 1)): 92 µL |
| O=C(N[C@@H](Cc1ccc(O)cc1)C(=O)O)c1cc(O)cc(O)c1 [3,5-Dihydroxybenzoyl-L-tyrosine] | 76 | 9.2 | volume of pancreatic juice (pancreatic juice; 8 rats of 0.5 kg, rectal, 100 μg secretin suppository with addition of 25 mg depot body (curve 2)): 1778 µL; increase in efficacy, rectal versus subcutaneous application (in words) (pancreatic juice; comparison of routes): greater increase in efficacy when applied rectally than with subcutaneous application; increase of the effect relative to original value (secretin suppository without additive) (pancreatic juice; [3]): about 20 times; protracted action (in words) (pancreatic juice; [3]): a protracted action can also be observed; increase of the effect (pancreatic juice; rectal, non-maximum stimulation in the normal dose range (about half the dose)): about 50 fold |
| O=C(c1ccccc1)c1ccc(O)cc1O [2,4-Dihydroxy-benzophenone] | 163 | 9.1 |  |
| O=C(CO)c1ccccc1 [2-Hydroxyacetophenone] | 38 | 7.6 |  |
| COC(=O)[C@H](Cc1ccc(O)cc1)NC(=O)c1ccc(O)cc1O [2,4-Dihydroxybenzoyl-L-tyrosine-methyl ester] | 70 | 7.8 |  |
| O=C(CCc1ccc(O)cc1)c1c(O)cc(O)cc1O [Phloretin] | 180 | 8.2 |  |
| O=C(NCCN(CCNC(=O)c1cc(O)cc(O)c1)C(=O)c1cc(O)cc(O)c1)c1cc(O)cc(O)c1 [Tris-(3,5-dihydroxybenzoyl-diethylene-triamine] | 79 | 8.6 |  |

— patent US4302448A, “Secretin preparations with intensified and protracted action, process for their manufacture, their use as well as dihydroxybenzoyl-L-tyrosine” (Hoechst Aktiengesellschaft, priority 1979, dated 1981)
